Here are results for seven compounds from paper PMC5543288, “Psychostimulant Effect of the Synthetic Cannabinoid JWH-018 and AKB48: Behavioral, Neurochemical, and Dopamine Transporter Scan Imaging Studies in Mice” (Frontiers in Psychiatry, 2017).

For test [1], the target named is CD-1 murine CB1 receptors. The following applies: ref [6]; read-out: Ki for CB1 receptors, CD-1 murine preparation; cited from earlier work.
Test [2] relates to [3H]-DA uptake in mouse striatal synaptosomes. Description: [3H]-DA uptake in striatal synaptosomes. The following applies: for reduction of [3H]-DA uptake: cocaine 1 µM, amphetamine 1 µM, added 5 min before 50 nM [3H]-DA, 10 min at 37°C. The test is classed as biochemical. Here is the method:
(§1) On the day of the experiment, the animal was euthanized, the brain was rapidly removed, and both striata isolated. Thereafter, a crude synaptosomal (P2) fraction was prepared as follows: the striata were suspended in ice-cold buffered sucrose solution (0.32 M, pH 7.4) and homogenized. The homogenate was centrifuged (10 min, 2,100 g, 4°C) to remove nuclei and debris. The supernatant was further centrifuged at 13,500 g for 20 min at 4°C. For [^3H]-WIN 35,428 binding experiments, the P2 pellet was resuspended in 50 mM Tris–HCl, 100 mM NaCl, pH 7.4. For [^3H]-DA release experiments, the P2 pellet was then resuspended in 5 ml of Kreb’s solution (mM: NaCl 118; KCl 4.4; CaCl2 1.2; MgSO4 1.2; KH2PO4 1.2; NaHCO3 25; glucose 10), gassed 20 min with a mixture of 95% O2 plus 5% CO2 containing [^3H]-DA (50 nM; Perkin Elmer, Monza, Italy), disodium EDTA (0.03 mM), and ascorbic acid (0.05 mM; to prevent [^3H]-DA degradation).
After synaptosomal preparation, the suspension was maintained under a light and continuous oxygenation (95% O2, 5% CO2) for 20 min at 37°C. Thereafter, 0.5 ml aliquots of striatal synaptosomal suspension were prepared. […] After this period, the reaction was stopped by filtration through microporus nylon filters (0.45 µm, 13 mm; Analytical Technology, Brugherio, Italy). The filters were then washed with 1 ml ice-cold Kreb’s solution and the radioactivity accumulated on synaptosomes was extracted by eluting two times with 1 ml of warm NaOH (1 N) and then determined by liquid scintillation spectrometer. Non-specific uptake was measured by following the same procedure at 0°C.

Another test addresses T1, mouse DAT (Mus musculus, UniProt Q61327).
T1 construct: DAT expressed in mouse striatal nerve terminals; from tissue; host or cells: mouse striatum, crude synaptosomal (P2) fraction
Description: [3H]-WIN 35,428 competition binding, mouse striatal synaptosomes. On the procedure:
Competition binding experiments were carried out incubating 8 nM [^3H]-WIN 35,428 (specific activity 84 Ci/mmol; Perkin Elmer, Boston, MA, USA) with CHO membranes transfected with human DAT (Perkin Elmer) or mouse striatal synaptosomes with different concentration of the examined compounds for 120 min at 4°C. Non-specific binding was determined in the presence of 1 µM GBR 12783. At the end of the incubation time, bound and free radioactivity were separated by filtering the assay mixture through Whatman GF/B glass fiber filters in a Brandel cell harvester (Brandel, Unterföhring, Germany). Filter bound radioactivity was counted in a Perkin Elmer 2810TR scintillation counter (Perkin Elmer).
as §1

The target of test [3] is T2, dopamine transporter (DAT) in the mouse striatum (Mus musculus, UniProt Q61327).
T2 construct: from tissue; host or cells: striatum of living CD-1 male mice (in vivo imaging)
Description: In vivo DaTSCAN SPECT-CT imaging, striatal [123I]-FP-CIT binding. The settings on record: i.p. 30 min before tracer: cocaine 20 mg/kg, amphetamine 10 mg/kg, JWH-018 1 mg/kg, AKB48 1 mg/kg.
Description: 18 CD-1 male mice were divided into six different groups (three mice per treatment). […] A control group (i.e., naïve untreated mice) was also included in the study. Thirty minutes after drug administration, all mice were submitted to an intravenous injection with a solution of [^123I]-DaTSCAN (15–20 MBq, ≤200 µl). The body temperature of the animals was maintained at 37°C during the imaging sessions and under the cage, between imaging sessions, using a heating lamp. The SPECT–CT whole-body images were acquired at 1 h and 30 min after [^123I]-FP-CIT injection, with the initial tomographic acquisition starting nearly 15 min after the injection. Each SPECT-CT whole-body acquisition consisted of one bed positions (36 mm), 60 min, 128 views over 360 ([35]). The used energy window is 119–219 keV and the images were reconstructed by using the iterative EM-ML algorithm, including the collimator response. CT images have been acquired, using the digital X-ray imaging system integrated into the YAP(S)PET scanner ([36]). Acquisition parameters for X-ray projections were X-ray tube voltage = 35 keV, anode current = 1 mA, exposure = 1 s, 64 views over 360, and magnification factor = 1.2. Subtraction of dark noise contribution and flat field corrections was accomplished to obtain final images. The CT data were reconstructed by using the FDK algorithm. Amide software ([37]) has been used for images’ registration, visualization and analysis. The size of the ROIs was voxels (100 mm^3 volume), corresponding to entire striatum. These ROIs were used as a template. To avoid the variability of the slice selection and to gain statistical power, the entire striatum volume for the analysis was used. The template was positioned manually (without changing the size and form of the ROIs) on the SPECT images with the backing of anatomical information from LONI MAP 2003 MRI mouse atlas ([38], [39]). For analysis of striatal [^123I]-FP-CIT binding, two consecutive horizontal slices (total thickness approximately 4 mm) with the highest striatal binding were selected. The landmarks for positioning were the intra-orbital glands, striatum, and the borders of the brain. Striatal binding ratios are expressed as average activity per unit volume [Bq/mm^3], each value has been calculated as the ratio between the activity inside the ROI and the ROI volume, normalized for injected activity and for mouse brain weight.

The test system of another test is male CD-1 mice. Description: Spontaneous locomotor activity (ANY-maze video tracking). The test is classed as in vivo, mouse. The settings on record: for immobility time: AKB48 1 mg/kg (30 min after administration); for immobility time / total distance traveled (spontaneous locomotion): amphetamine 10 mg/kg; for immobility time / total distance traveled (spontaneous locomotion) / duration of the increase of spontaneous locomotion / time spent in the peripheral arena: cocaine 20 mg/kg; for total distance traveled (spontaneous locomotion): monitored 240 min; for spontaneous locomotion, antagonist by itself: AM 251 1 mg/kg i.p., SCH23390 0.1 mg/kg i.p., haloperidol 0.05 mg/kg i.p.; for time spent in the peripheral arena: acute i.p.: amphetamine 10 mg/kg. Here is the method: Drugs were administered by intraperitoneal injection in a volume of 4 μl/g. The used doses of JWH-018 (0.3 and 1 mg/kg i.p.) and AKB48 (0.3 and 1 mg/kg i.p.) were chosen based on previous studies ([6], [7], [9], [10]).
The spontaneous locomotor activity was measured by using the ANY-maze video tracking system (Ugo Basile, application version 4.99 g Beta). The mouse was placed in a square plastic cage (60 cm × 60 cm) located in a sound- and light-attenuated room and motor activity was monitored for 240 min. Four mice were monitored in parallel in each experiment. Parameters measured were distance traveled (meter), total time in the peripheral zone (seconds), total time in the central zone (seconds), and immobility time (seconds; the animal was considered immobile when 95% of his image remained in the same place for at least 2 s). Parameters were analyzed every 15 min for a maximum of 240 min and to avoid mice olfactory cues, cages were carefully cleaned with a dilute (5%) ethanol solution and washed with water between animal trials. All experiments were performed between 9:00 a.m. and 1:00 p.m.

Test [4] deals with DA release in the nucleus accumbens (NAc) shell. As to the kind of experiment: In vivo brain microdialysis, NAc shell extracellular DA. The arrangement: species or system mouse. On the procedure:
Male ICR (CD-1®) mice, 25–30 g (ENVIGO. Harlan Italy; S. Pietro al Natisone, Italy) were anesthetized with Isoflurane (3%; 200 ml/min) and implanted with vertical dialysis probe (1 mm dialyzing portion) prepared with AN69 fibers (Hospal Dasco, Bologna, Italy) in the NAc shell (A + 1.4, L 0.4 from bregma, V-4.8 from dura) according to the mouse brain atlas by Paxinos and Franklin ([40]). On the day following surgery, probes were perfused with Ringer’s solution (147 mM NaCl, 4 mM KCl, 2.2 mM CaCl2) at a constant rate of 1 µl/min. Dialyzate samples (10 µl) were injected into an HPLC equipped with a reverse phase column (C8 3.5 um, Waters, USA) and a coulometric detector (ESA, Coulochem II) to quantify DA. The first electrode of the detector was set at +130 mV (oxidation) and the second at −175 mV (reduction). The composition of the mobile phase was as follows: 50 mM NaH2PO4, 0.1 mM Na2-EDTA, 0.5 mM n-octyl sodium sulfate, 15% (v/v) methanol, pH 5.5. […] At the end of each experiment, animals were sacrificed and their brains removed and stored in formalin (8%) for histological examination to verify the correct placement of the microdialysis probe.

Test [5] concerns spontaneous [3H]-DA efflux from mouse striatal synaptosomes. As to the kind of experiment: Spontaneous [3H]-DA release from striatal synaptosomes. The test is classed as biochemical. The settings on record: amphetamine 10 µM, cocaine 100 nM, JWH-018 and AKB48 100 nM and 1 µM. On the procedure:
as §1
After synaptosomal preparation, 0.5 ml aliquots of the suspension were distributed on microporous filters placed at the bottom of a set of parallel superfusion chambers maintained at 37°C and perfused with aerated (95% O2/5% CO2) Kreb’s solution (0.3 ml/min). After 30 min of superfusion to equilibrate the system, 5-min fractions were collected from the 30th to the 75th min (nine samples). […] At the end of the experiment, the radioactivity of the samples and filters was determined by liquid scintillation spectrometry (LS1800 Beckman). In view of the results obtained, in a separate set of experiments, [^3H]-DA uptake was also evaluated.

The target of the next test is T3, human DAT (Homo sapiens, UniProt Q01959).
T3 construct: purchased Perkin Elmer; host or cells: CHO cells transfected with human DAT (membrane preparation)
Description: [3H]-WIN 35,428 competition binding, CHO membranes transfected with human DAT. Here is the method:
At the end of the incubation time, bound and free radioactivity were separated by filtering the assay mixture through Whatman GF/B glass fiber filters in a Brandel cell harvester (Brandel, Unterföhring, Germany).

Setting [6] is: acute i.p.: JWH-018 0.3 mg/kg, AKB48 1 mg/kg.

Structures are written as SMILES. Structures can show the parent of a compound that is named as a salt. Where two headings read alike, the source gives them in different places. Some results are limits rather than exact numbers.

T2 sequence (Q61327 whole entry): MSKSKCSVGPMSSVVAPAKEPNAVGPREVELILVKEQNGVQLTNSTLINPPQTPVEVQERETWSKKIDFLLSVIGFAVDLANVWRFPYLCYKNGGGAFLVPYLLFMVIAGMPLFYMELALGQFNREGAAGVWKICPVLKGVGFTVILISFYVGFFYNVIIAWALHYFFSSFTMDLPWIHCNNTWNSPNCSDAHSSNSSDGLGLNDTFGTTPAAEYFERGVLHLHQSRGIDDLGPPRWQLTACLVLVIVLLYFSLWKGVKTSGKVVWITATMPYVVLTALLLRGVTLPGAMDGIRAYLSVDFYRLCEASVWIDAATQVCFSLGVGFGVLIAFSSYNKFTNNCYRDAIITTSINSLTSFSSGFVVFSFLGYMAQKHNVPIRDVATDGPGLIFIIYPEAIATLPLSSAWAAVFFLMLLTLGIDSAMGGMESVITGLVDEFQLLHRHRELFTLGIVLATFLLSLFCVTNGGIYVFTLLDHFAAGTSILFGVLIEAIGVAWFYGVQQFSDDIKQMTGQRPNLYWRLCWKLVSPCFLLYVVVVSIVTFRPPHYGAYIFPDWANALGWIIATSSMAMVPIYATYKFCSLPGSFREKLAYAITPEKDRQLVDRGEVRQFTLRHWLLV
T1 sequence (Q61327 whole entry): as above
T3 sequence (Q01959 whole entry): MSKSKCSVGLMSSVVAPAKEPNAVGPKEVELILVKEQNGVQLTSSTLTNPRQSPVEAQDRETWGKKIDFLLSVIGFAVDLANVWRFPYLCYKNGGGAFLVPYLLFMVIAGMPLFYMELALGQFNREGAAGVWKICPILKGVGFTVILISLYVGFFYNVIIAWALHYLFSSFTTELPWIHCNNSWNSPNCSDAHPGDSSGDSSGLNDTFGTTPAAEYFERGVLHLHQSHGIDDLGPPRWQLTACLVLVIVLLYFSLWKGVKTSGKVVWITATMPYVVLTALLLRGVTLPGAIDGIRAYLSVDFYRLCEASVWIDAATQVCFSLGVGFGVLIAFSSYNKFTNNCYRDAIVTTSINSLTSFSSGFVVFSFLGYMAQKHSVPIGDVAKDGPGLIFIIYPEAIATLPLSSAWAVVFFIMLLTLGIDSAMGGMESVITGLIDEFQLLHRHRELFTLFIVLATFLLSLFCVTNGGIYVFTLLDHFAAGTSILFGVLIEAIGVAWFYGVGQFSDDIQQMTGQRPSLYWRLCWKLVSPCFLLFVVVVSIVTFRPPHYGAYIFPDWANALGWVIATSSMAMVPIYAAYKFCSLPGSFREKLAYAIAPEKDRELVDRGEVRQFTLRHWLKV

As to `CCCCCn1nc(C(=O)NC23CC4CC(CC(C4)C2)C3)c2ccccc21` [AKB48, N-(1-adamantyl)-1-pentyl-1H-indazole-3-carboxamide], in test [1], the Ki was 5.34 nM. The “effect on [3H]-DA uptake” value in test [2] (GBR 12783 20 nM, JWH-018 and AKB48 100 nM and 1 µM) is recorded as “ineffective”. On mouse DAT, this compound showed a Ki of over 10000 nM. In test [3], the “reduction of [123I]-FP-CIT binding in the striatum” value (shortened to “reduction of [123I]-FP-CIT binding”) is ~ 42%. Moreover, in the test with male CD-1 mice (JWH-018 0.3 mg/kg, AKB48 1 mg/kg, AM 251 1 mg/kg i.p. 20 min before), the “facilitation of spontaneous locomotion after pretreatment with AM 251” value is reported as “prevented”. Further, the “facilitation of spontaneous locomotion after coadministration of SCH23390 and haloperidol” value in the test with male CD-1 mice (JWH-018 0.3 mg/kg, AKB48 1 mg/kg, SCH23390 0.1 mg/kg i.p. + haloperidol 0.05 mg/kg i.p. 20 min before) was “prevented”. Further, in the test on male CD-1 mice (setting [6]), the “time in the central zone versus peripheral area of the cage” value is “spent more time in the central zone”, the “total distance traveled (spontaneous locomotion)” value (“total distance traveled” below) is “facilitated the spontaneous locomotion only in the first 15 min” and the “duration of the increase of spontaneous locomotion” value is 15 min. In addition, the immobility time entry with male CD-1 mice (acute i.p.: JWH-018 0.3 mg/kg) was “increased”. Moreover, the “time of peak extracellular DA level after administration” value in test [4] (AKB48 0.3 mg/kg i.p.) was 40 min. Further, the “increase of NAc shell extracellular DA levels (maximal/peak)” value in test [4] (JWH-018 0.3 mg/kg i.p. (long-lasting), AKB48 0.3 mg/kg i.p. (peak)) is given as ~ 150 % of baseline values. Further, the “NAc shell extracellular DA levels” value in test [4] (awake freely moving mice, i.p.: amphetamine 10 mg/kg, cocaine 20 mg/kg, JWH-018 0.3 mg/kg, AKB48 0.3 mg/kg) is “significantly increased”. Moreover, in test [5], the “spontaneous [3H]-DA efflux from striatal synaptosomes” value (“spontaneous [3H]-DA efflux” for short) is listed as “did not affect”. The Ki on human DAT amounted to 4590 nM.
As to `CN1CCc2cc(Cl)c(O)cc2C(c2ccccc2)C1` (centres unmarked) [SCH23390, 8-chloro-3-methyl-5-phenyl-1,2,4,5-tetrahydro-3-benzazepin-7-ol, reference compound], in the test on male CD-1 mice, the “spontaneous locomotion, antagonist by itself” value is on record as “did not alter the spontaneous locomotion”.
With `C(=C\c1ccccc1)/CN1CCN(CCOC(c2ccccc2)c2ccccc2)CC1` [GBR 12783, 1-(2-benzhydryloxyethyl)-4-[(E)-3-phenylprop-2-enyl]piperazine;dihydrochloride, reference compound], the Ki at mouse DAT (8 nM [3H]-WIN 35,428, 120 min at 4°C, mean ± SEM, read-out: Mouse striatal synaptosomes Ki) was 1.72 ± 0.11 nM; on human DAT (8 nM [3H]-WIN 35,428, 120 min at 4°C, mean ± SEM, read-out: hDAT-CHO membranes Ki), 1.93 ± 0.14 nM.
As for `Cc1c(C(=O)NN2CCCCC2)nn(-c2ccc(Cl)cc2Cl)c1-c1ccc(I)cc1` [AM 251, reference compound], the “spontaneous locomotion, antagonist by itself” value in the test on male CD-1 mice was “did not alter the spontaneous locomotion”.
`O=C(CCCN1CCC(O)(c2ccc(Cl)cc2)CC1)c1ccc(F)cc1` [haloperidol, 4-[4-(4-chlorophenyl)-4-hydroxypiperidin-1-yl]-1-(4-fluorophenyl)butan-1-one, reference compound]: in the test with male CD-1 mice, the “spontaneous locomotion, antagonist by itself” value was “did not alter the spontaneous locomotion”.
Regarding `COC(=O)[C@H]1[C@@H](OC(=O)c2ccccc2)C[C@@H]2CC[C@H]1N2C` [Cocaine, reference compound], the “reduction of [3H]-DA uptake” value in test [2] is reported as about 50%. On mouse DAT, this compound displayed a Ki of 193 ± 16 nM. Further, the “reduction of [123I]-FP-CIT binding” value in test [3] was ~ 40%. Further, in the test with male CD-1 mice (acute i.p.: JWH-018 0.3 mg/kg), the immobility time result is given as “reduced the immobility time”. In the test on male CD-1 mice (setting [6]), the “total distance traveled” value was “induced long-lasting increases” and the “duration of the increase of spontaneous locomotion” value was 90 min. The “time spent in the peripheral arena” value in the test on male CD-1 mice was “increase the time spent in the peripheral arena”. Further, the “spontaneous [3H]-DA efflux” value in test [5] is given as “induced a significant increase”.
For `CC(N)Cc1ccccc1` (centres unmarked) [Amphetamine, reference compound], in test [2], the “reduction of [3H]-DA uptake” value is about 40%. On mouse DAT, this compound yielded a Ki of 622 ± 53 nM. For the same compound, in test [3], the “reduction of [123I]-FP-CIT binding” value is ~ 25%. The immobility time result in the test with male CD-1 mice (acute i.p.: JWH-018 0.3 mg/kg) was “reduced the immobility time”. Moreover, the “total distance traveled” value in the test on male CD-1 mice (setting [6]) was “induced long-lasting increases”. For the same compound, the “time spent in the peripheral arena” value in the test on male CD-1 mice is recorded as “increase the time spent in the peripheral arena”. Moreover, the “spontaneous [3H]-DA efflux” value in test [5] is reported as “induced a significant increase”.
